Assay [1] has as its target Bile salt export pump (Homo sapiens, UniProt O95342). Type of assay: functional.
In assay [2] the target is T1, Alpha-2A adrenergic receptor (Homo sapiens, UniProt P08913).
T1 sequence (P08913 whole entry): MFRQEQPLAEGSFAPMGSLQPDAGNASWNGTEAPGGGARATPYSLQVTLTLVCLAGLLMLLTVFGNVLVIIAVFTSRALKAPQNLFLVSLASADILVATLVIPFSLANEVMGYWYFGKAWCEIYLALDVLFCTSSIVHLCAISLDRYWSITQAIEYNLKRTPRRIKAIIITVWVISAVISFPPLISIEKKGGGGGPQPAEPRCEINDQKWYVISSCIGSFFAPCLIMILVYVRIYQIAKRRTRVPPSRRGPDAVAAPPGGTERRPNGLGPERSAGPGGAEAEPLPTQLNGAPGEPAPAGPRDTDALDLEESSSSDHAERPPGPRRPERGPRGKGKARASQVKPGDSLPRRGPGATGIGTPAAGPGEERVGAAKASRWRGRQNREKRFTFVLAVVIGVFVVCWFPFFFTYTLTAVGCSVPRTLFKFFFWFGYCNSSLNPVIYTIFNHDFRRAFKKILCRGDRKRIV
Type of assay: functional, cell-based.

In assay [3] the target is T2, Cholecystokinin receptor type A (Homo sapiens, UniProt P32238).
T2 sequence (P32238 whole entry): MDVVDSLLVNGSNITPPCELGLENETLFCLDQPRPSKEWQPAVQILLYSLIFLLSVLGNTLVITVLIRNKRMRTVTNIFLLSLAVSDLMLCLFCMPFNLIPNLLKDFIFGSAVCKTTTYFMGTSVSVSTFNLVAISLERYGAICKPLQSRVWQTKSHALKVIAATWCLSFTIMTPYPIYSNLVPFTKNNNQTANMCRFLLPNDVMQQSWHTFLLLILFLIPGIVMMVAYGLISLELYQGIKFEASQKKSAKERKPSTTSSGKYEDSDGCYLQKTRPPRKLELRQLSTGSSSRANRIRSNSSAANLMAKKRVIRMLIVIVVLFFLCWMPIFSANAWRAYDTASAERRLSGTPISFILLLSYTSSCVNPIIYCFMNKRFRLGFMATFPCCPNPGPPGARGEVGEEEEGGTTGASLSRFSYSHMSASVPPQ

Assay [4] concerns the target T3, Muscarinic acetylcholine receptor M2 (Homo sapiens, UniProt P08172).
T3 sequence (P08172 whole entry): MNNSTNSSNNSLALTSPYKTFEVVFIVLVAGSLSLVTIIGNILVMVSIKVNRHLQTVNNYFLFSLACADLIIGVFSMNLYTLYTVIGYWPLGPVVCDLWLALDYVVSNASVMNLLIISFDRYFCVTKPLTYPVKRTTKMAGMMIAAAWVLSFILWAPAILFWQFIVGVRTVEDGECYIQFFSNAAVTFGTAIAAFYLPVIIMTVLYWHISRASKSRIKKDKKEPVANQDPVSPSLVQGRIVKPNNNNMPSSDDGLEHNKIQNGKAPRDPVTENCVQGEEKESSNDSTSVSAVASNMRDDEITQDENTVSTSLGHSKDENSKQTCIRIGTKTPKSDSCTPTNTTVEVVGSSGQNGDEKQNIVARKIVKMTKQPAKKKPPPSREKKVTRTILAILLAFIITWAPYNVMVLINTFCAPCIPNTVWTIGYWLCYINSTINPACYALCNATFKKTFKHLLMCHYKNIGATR
Type of assay: functional, cell-based.

For assay [5], the target named is D(1A) dopamine receptor (Homo sapiens, UniProt P21728). Type of assay: functional, cell-based.
The target of assay [6] is Growth hormone secretagogue receptor type 1 (Homo sapiens, UniProt Q92847).
Assay [7] has as its target T4, 5-hydroxytryptamine receptor 1A (Homo sapiens, UniProt P08908).
T4 sequence (P08908 whole entry): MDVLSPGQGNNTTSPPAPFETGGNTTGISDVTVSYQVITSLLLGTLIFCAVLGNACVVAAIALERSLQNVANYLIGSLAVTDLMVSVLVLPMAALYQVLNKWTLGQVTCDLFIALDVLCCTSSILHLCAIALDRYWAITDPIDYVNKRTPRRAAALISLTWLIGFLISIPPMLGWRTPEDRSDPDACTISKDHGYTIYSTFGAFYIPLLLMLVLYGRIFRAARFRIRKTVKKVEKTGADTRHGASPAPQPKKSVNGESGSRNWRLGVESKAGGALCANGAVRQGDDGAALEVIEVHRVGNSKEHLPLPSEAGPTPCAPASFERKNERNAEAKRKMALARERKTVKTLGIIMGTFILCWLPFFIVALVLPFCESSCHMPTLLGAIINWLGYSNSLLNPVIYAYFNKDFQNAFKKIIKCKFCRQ
Type of assay: functional, cell-based.

Assay [8] addresses Motilin receptor (Homo sapiens, UniProt O43193).
Assay [9] addresses Delta-type opioid receptor (Homo sapiens, UniProt P41143).
Assay [10] concerns the target T5, Equilibrative nucleoside transporter 1 (Homo sapiens, UniProt Q99808).
T5 sequence (Q99808 whole entry): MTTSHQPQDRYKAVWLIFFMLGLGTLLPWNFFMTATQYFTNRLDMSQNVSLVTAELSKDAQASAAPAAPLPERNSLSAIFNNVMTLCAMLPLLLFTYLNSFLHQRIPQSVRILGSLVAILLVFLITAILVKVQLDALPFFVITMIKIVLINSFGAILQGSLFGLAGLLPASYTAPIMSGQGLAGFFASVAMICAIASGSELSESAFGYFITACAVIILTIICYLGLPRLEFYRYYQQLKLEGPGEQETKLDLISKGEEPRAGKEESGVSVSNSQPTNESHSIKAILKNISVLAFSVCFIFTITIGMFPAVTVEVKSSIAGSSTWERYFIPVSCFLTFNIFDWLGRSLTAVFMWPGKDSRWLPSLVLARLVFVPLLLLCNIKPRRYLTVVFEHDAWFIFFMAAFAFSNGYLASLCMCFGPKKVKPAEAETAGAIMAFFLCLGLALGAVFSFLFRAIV

Assay [11] has as its target Sodium-dependent dopamine transporter (Homo sapiens, UniProt Q01959).
Assay [12] addresses cGMP-inhibited 3',5'-cyclic phosphodiesterase 3A (Homo sapiens, UniProt Q14432). Type of assay: functional.
Note: assay procedure not described here.

Bile salt export pump, sequence (O95342 whole entry): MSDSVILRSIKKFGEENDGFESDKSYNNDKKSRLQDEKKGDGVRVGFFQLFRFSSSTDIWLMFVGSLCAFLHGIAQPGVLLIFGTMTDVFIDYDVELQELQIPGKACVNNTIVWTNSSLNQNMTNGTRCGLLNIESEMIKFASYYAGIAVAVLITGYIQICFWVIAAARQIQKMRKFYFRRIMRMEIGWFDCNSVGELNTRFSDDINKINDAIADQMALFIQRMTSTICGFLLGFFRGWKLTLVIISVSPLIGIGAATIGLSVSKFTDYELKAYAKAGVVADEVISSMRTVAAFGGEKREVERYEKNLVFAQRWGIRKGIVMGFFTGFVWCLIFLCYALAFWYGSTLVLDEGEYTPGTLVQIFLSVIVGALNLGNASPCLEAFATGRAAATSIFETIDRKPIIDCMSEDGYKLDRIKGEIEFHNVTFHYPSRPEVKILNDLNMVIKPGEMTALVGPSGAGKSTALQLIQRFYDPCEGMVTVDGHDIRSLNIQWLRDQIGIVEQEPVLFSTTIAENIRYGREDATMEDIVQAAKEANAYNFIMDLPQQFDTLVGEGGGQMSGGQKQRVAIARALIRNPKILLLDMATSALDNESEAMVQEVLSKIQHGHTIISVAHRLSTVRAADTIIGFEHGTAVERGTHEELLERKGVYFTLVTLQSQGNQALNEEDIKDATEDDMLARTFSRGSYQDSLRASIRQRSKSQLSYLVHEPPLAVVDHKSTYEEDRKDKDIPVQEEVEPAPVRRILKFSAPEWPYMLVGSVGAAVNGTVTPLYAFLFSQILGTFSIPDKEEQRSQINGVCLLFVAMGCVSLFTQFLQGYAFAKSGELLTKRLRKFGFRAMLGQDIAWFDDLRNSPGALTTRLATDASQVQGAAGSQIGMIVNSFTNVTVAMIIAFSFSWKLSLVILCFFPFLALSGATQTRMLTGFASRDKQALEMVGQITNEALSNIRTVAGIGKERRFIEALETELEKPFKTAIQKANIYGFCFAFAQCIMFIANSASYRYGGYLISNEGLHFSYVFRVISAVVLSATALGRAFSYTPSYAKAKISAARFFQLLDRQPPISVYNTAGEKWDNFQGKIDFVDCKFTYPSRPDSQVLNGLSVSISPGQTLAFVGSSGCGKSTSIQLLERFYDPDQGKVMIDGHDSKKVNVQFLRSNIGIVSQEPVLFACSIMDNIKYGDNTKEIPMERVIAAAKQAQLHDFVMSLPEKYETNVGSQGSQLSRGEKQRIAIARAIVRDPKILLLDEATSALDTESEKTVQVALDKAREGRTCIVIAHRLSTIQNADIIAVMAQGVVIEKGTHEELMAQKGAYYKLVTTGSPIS
cGMP-inhibited 3',5'-cyclic phosphodiesterase 3A, sequence (Q14432 whole entry): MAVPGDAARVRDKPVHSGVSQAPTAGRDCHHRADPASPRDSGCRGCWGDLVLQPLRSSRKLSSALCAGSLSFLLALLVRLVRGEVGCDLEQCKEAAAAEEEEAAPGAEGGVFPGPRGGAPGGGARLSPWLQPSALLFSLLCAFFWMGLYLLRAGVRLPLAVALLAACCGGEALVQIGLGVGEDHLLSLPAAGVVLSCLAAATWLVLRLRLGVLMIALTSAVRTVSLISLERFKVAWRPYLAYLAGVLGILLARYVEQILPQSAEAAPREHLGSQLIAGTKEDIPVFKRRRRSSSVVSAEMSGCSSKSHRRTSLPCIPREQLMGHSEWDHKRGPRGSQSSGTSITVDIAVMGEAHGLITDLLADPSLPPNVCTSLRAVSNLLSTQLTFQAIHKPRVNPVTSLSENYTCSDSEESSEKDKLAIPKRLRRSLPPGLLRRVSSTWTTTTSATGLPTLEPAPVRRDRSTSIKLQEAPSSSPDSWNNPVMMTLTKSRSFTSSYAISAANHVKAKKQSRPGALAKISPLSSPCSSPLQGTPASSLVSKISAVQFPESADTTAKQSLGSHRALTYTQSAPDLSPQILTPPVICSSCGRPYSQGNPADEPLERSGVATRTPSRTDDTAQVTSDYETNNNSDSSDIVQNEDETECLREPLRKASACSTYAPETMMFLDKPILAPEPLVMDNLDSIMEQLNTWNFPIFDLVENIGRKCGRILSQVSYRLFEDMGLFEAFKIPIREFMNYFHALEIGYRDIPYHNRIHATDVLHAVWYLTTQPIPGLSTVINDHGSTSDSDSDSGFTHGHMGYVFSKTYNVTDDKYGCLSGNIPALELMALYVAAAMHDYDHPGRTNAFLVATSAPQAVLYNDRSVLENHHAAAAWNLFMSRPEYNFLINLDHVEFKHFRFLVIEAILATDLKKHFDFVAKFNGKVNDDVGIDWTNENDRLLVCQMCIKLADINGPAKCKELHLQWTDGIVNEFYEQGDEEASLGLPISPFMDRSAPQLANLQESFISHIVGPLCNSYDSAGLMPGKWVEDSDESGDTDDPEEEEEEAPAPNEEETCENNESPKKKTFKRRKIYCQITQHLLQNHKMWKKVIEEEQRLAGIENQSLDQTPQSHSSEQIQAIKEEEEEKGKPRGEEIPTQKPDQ
Delta-type opioid receptor, sequence (P41143 whole entry): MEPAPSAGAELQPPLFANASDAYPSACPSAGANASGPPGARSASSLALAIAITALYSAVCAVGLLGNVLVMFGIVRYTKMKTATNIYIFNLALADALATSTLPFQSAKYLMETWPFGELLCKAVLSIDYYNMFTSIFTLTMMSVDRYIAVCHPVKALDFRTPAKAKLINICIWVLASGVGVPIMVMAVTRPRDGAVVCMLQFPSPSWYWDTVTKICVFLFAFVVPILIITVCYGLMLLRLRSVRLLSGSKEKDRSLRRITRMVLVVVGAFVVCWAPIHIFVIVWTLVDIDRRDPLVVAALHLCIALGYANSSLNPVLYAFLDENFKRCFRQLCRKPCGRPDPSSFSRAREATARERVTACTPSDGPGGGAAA
Motilin receptor, sequence (O43193 whole entry): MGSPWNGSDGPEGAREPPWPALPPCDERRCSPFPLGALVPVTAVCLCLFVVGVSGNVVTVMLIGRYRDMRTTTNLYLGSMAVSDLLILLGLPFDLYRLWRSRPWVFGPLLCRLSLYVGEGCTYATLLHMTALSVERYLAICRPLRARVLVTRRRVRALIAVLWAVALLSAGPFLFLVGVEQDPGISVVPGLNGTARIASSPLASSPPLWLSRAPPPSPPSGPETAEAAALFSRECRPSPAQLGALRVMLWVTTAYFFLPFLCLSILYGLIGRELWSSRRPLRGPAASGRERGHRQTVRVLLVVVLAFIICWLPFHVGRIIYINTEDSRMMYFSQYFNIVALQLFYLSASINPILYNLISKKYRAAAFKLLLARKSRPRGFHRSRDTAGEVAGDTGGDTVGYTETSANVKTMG
D(1A) dopamine receptor, sequence (P21728 whole entry): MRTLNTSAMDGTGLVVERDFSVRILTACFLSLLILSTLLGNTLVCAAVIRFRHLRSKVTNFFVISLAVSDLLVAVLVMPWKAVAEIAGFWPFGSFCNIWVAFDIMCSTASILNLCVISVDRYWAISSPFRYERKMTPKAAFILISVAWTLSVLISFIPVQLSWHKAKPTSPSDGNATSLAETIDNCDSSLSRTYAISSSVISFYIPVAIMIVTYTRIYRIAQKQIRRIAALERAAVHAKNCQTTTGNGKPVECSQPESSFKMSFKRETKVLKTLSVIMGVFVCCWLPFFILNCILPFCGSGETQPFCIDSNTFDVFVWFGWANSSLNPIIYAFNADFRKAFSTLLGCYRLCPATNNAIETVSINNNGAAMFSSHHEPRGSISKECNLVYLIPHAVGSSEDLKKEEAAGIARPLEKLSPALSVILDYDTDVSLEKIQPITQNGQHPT
Sodium-dependent dopamine transporter, sequence (Q01959 whole entry): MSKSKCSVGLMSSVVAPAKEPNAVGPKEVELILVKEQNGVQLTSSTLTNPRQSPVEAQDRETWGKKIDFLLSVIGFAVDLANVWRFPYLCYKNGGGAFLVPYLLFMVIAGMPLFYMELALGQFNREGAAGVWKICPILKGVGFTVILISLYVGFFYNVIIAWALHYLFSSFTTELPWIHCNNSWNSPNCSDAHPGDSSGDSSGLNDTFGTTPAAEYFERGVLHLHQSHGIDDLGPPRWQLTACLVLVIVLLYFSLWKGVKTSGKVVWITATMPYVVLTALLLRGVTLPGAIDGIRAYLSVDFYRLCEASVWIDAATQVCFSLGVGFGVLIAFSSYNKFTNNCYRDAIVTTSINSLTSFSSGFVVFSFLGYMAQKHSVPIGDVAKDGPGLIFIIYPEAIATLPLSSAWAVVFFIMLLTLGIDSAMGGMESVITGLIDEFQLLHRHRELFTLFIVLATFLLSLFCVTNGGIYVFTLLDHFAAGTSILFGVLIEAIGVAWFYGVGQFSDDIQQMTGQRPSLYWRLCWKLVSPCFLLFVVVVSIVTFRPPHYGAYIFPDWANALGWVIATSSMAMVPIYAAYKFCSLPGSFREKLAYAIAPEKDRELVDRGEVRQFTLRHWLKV
Growth hormone secretagogue receptor type 1, sequence (Q92847 whole entry): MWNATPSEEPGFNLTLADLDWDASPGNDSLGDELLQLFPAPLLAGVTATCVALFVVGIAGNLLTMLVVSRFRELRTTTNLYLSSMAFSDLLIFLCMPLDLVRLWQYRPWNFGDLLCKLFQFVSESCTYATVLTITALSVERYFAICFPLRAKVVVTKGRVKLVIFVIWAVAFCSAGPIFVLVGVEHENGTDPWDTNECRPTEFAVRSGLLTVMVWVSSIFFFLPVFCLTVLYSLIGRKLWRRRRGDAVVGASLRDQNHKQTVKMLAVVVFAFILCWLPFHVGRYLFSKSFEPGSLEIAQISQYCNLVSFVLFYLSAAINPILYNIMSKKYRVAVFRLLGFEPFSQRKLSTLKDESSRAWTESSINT

As a reminder, the AC50 is the concentration giving half of the maximal activity seen. Turning to `O=C(CCCCCCC(=O)Nc1ccccc1)NO` [VORINOSTAT], the half-maximal activity concentration (AC50) in assay [1] was greater than 300 µM; in assay [2], greater than 30 µM; in assay [3], greater than 30 µM; in assay [4], greater than 30 µM; in [5], greater than 30 µM; in assay [6], greater than 30 µM. Also, the AC50 in [7], in [8], in assay [9], in assay [10], in assay [11] and in assay [12] was greater than 30 µM each time.

The values are drawn from ChEMBL document CHEMBL5291721, “A preclinical secondary pharmacology resource illuminates target-adverse drug reaction associations of marketed drugs” (Nat Commun, 2023).
